# How the values were obtained:
# [1] = Nav 1.7 or Nav 1.5 IWQ In Vitro Assay: HEK 293 Cells stably transfected with either Nav 1.7 or Nav 1.5 were recorded in population patch-clamp mode with the IonWorks® Quattro automated electrophysiology system in accordance with the manufacturer's specifications (Molecular Devices, LLC, Sunnyvale, Calif.). Sodium channel currents were measured in response to a train of depolarizations that induced successively greater inactivation.Cells were held at −110 mV for three seconds (Nav 1.7) or half a second (Nav 1.5) from a holding voltage of −15 mV, then put through a series of 26 pulses of 150 msec duration to −20 mV at a frequency of 5 Hz. Cells were then left unclamped for a period of 3 to 8 minutes while a single concentration of test compound was added. Cells were then reclamped and put through the same voltage protocol. Current at the end of the 26th pulse to −20 mV was subtracted from the peak current evoked by the 26th pulse to −20 mV to correct for leak current. Percent block was calculated for each concentration in duplicate, and IC50 curves were fitted to percent block as a function of concentration.; conditions: HEK293
# [2] = Nav 1.7 In Vitro PX Assay: HEK 293 cells stably transfected with human Nav1.7 were recorded in whole cell voltage clamp mode with the PatchXpress automated electrophysiology system (Molecular Devices, LLC, Sunnyvale, Calif.). Compound effects were measured on a partially inactivated state of the sodium channel. Cells were clamped to a holding potential yielding 20 to 50% inactivation. To elicit sodium current, channels were activated by pulsing to −10 mV for 20 msec. This voltage protocol was repeated at a rate of 0.1 Hz throughout the experiment. A single concentration of test compound was applied to cells for a duration of 3 minutes. Peak sodium current was measured at the end of the compound addition period to determine percent inhibition. Three to five cells were tested per concentration, and IC50 curves were fitted to percent inhibition as a function of concentration.; conditions: HEK293
Compound,IC50 [1],IC50 [2]
COc1cc(C#CC2CCCC2)c(F)cc1-n1c(=O)ccc2cc(S(=O)(=O)Nc3ccon3)ccc21,4.53 nM,17.3 nM
COc1cc(C#CC2(OCC(F)(F)F)CCCC2)c(F)cc1-n1c(=O)ccc2cc(S(=O)(=O)Nc3ccon3)ccc21,9.73 nM,33.8 nM
COc1cc(C#CC2CCCC2)c(Cl)cc1-n1c(=O)ccc2cc(S(=O)(=O)Nc3ccon3)ccc21,10 nM,18.6 nM
COc1cc(C#C[C@H]2C[C@@H]2C(F)(F)F)c(F)cc1-n1c(=O)ccc2cc(S(=O)(=O)Nc3ccon3)ccc21,,210 nM
COc1cc(C#C[C@@H]2C[C@@H]2C(F)(F)F)c(F)cc1-n1c(=O)ccc2cc(S(=O)(=O)Nc3ccon3)ccc21,5.5 nM,139 nM
COc1cc(C#CC2(C(F)(F)F)CC2)c(F)cc1-n1c(=O)ccc2cc(S(=O)(=O)Nc3ccon3)ccc21,8 nM,

# — ChEMBL document CHEMBL5727835, “Alkynyl dihydroquinoline sulfonamide compounds” (2020)
